Among the data in ChEMBL document CHEMBL5647698, “Covalent-Allosteric Inhibitors to Achieve Akt Isoform-Selectivity” (Angew Chem Int Ed Engl, 2019) are Activity and IC50 values, retold here.

The source made the active and inactive calls. The calls are words filed in the database; no cut-off is given here.

Experiment [1] concerns PANC-1. Nature of the experiment: Downregulation of p-AKT level at serine 473 residue in Akt1 knockout human PANC-1 cells measured after 24 hrs by Western blotting analysis. It is filed as functional, cell-based. The note with it: dose 0.3-5 µM.
For experiment [2], the system named is PANC-1. Nature of the experiment: Downregulation of p-PRAS40 level at threonine 246 residue in Akt1 knockout human PANC-1 cells measured after 24 hrs by Western blotting analysis. It is filed as functional, cell-based. To be noted: dose 0.3-5 µM.
Experiment [3] concerns the target RAC-gamma serine/threonine-protein kinase (Homo sapiens, UniProt Q9Y243).
Description: Inhibition of wild-type AKT3 (unknown origin) by HTRF KinEASE assay
In experiment [4] the target is RAC-alpha serine/threonine-protein kinase (Homo sapiens, UniProt P31749). The experiment in a line: biochemical.
Chain of RAC-alpha serine/threonine-protein kinase (P31749 whole entry): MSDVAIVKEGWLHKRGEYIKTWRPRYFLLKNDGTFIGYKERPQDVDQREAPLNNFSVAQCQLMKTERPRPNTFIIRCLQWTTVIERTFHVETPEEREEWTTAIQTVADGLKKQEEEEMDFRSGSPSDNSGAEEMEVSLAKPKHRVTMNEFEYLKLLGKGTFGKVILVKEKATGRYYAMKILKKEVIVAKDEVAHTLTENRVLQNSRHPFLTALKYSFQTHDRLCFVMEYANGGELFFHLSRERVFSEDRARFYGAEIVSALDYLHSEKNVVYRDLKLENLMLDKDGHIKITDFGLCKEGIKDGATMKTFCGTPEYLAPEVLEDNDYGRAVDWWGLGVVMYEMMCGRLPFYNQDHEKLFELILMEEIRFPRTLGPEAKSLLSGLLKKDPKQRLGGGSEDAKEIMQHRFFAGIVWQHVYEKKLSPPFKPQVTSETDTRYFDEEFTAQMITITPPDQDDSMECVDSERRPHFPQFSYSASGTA

Chain of RAC-gamma serine/threonine-protein kinase (Q9Y243 whole entry): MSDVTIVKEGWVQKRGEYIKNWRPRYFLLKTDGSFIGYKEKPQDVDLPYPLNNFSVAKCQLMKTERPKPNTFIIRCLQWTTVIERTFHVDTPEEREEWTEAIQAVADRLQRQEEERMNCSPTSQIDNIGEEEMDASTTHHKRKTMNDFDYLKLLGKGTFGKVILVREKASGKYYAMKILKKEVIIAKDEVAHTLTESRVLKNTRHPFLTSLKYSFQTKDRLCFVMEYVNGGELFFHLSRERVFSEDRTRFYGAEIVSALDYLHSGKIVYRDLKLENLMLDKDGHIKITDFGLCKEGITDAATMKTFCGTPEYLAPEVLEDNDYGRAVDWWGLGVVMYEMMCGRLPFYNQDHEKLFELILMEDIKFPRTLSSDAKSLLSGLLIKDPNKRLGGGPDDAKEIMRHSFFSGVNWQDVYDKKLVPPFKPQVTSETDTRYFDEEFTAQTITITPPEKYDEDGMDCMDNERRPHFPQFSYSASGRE

For the compound `C=CC(=O)Nc1ccc2[nH]c(=O)n(C3CCN(Cc4ccc(-c5nc6cc[nH]c(=O)c6cc5-c5ccccc5)cc4)CC3)c2c1`, the result in the experiment with PANC-1 [1] and in the experiment with PANC-1 [2] was Active.
Consider `C=CC(=O)Nc1ccc2[nH]c(=O)n(C3CCN(Cc4ccc(-c5[nH]c(=O)c(CC(C)C)nc5-c5ccccc5)cc4)CC3)c2c1`, for which the result in the experiment on PANC-1 [1] and with PANC-1 [2] was Active.
For the compound `C=CC(=O)Nc1ccc2[nH]c(=O)n(C3CCN(Cc4ccc(-c5[nH]c(=O)c(C)nc5-c5ccccc5)cc4)CC3)c2c1`, the result in the experiment with PANC-1 [1] and in the experiment on PANC-1 [2] was Active.
For `Nc1ccc2[nH]c(=O)n(C3CCN(Cc4ccc(-c5[nH]c(=O)c(Cc6ccc(O)cc6)nc5-c5ccccc5)cc4)CC3)c2c1`, the IC50 in experiment [3] was found to be 17.7 µM; in experiment [4], 5.59 µM.
Take `CC(C)Cc1nc(-c2ccccc2)c(-c2ccc(CN3CCC(n4c(=O)[nH]c5ccc(N)cc54)CC3)cc2)[nH]c1=O`: in experiment [4], 2.83 µM corresponded to half-maximal inhibition (IC50).
